The results in this text go back to ChEMBL document CHEMBL5236655, “Role of symmetry in 3,3-diphenyl-1,3-dihydroindol-2-one derivatives as inhibitors of translation initiation” (Bioorg Med Chem Lett, 2023).

A short description of assay [1]: Antiproliferative activity against human CRL-2813 cells incubated for 5 days by SRB assay. It is filed as functional, cell-based. As to conditions: CRL2813, 120 h.
Assay [2] in a line: Antiproliferative activity against human CRL-2351 cells incubated for 5 days by SRB assay. Particulars: CRL-2351, 120 h. It is filed as functional, cell-based. (In SRB staining, fixed cells bind dye roughly in proportion to their protein.)
For assay [3], the target named is Interferon-induced, double-stranded RNA-activated protein kinase (Homo sapiens) (UniProt P19525). As to the kind of experiment: Induction of eIF2alpha phosphorylation (unknown origin) assessed as fold increase in ATF-4 stimulation at 20 uM by dual luciferase reporter assay. As to conditions: filed as activator. On the technique in general: A reporter such as luciferase makes a cellular process visible.
Sequence of Interferon-induced, double-stranded RNA-activated protein kinase (Homo sapiens) (P19525 whole entry): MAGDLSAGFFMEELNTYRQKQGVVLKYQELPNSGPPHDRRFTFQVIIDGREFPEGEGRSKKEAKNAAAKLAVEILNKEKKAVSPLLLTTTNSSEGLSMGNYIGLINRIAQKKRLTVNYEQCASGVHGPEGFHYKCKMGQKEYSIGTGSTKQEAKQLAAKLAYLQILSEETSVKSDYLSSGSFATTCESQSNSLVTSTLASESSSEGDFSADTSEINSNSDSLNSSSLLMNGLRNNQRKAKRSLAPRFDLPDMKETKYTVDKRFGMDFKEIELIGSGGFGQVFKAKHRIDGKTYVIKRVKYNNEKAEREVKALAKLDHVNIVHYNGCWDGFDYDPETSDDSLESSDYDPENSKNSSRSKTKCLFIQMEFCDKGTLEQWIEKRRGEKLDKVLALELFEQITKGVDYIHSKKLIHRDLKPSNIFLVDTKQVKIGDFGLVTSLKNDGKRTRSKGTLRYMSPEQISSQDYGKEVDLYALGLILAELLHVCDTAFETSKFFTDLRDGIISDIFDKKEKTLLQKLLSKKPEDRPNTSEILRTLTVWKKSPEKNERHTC

Assay [4] shares this target. As to the kind of experiment: Induction of eIF2alpha phosphorylation (unknown origin) assessed as fold increase in ATF-4 stimulation at 10 uM by dual luciferase reporter assay.
Assay [5] has the same target. As to the kind of experiment: Induction of eIF2alpha phosphorylation (unknown origin) assessed as fold increase in ATF-4 stimulation at 80 uM by dual luciferase reporter assay. Particulars: filed as activator.
Assay [6] has the same target. As to the kind of experiment: Induction of eIF2alpha phosphorylation in human CRL-2813 cells assessed as fold increase in CHOP expression incubated for 6 hrs by RT-PCR analysis. The format is cell-based. As to conditions: filed as activator, dose 10.0 µM.
The target is the same in assay [7]. As to the kind of experiment: Induction of eIF2alpha phosphorylation (unknown origin) assessed as fold increase in ATF-4 stimulation at 40 uM by dual luciferase reporter assay. As to conditions: filed as activator.
Assay [8] shares this target. As to the kind of experiment: Induction of eIF2alpha phosphorylation (unknown origin) assessed as fold increase in ATF-4 stimulation at 2.5 uM by dual luciferase reporter assay. As to conditions: filed as activator.
For assay [9] the target is unchanged. As to the kind of experiment: Induction of eIF2alpha phosphorylation (unknown origin) assessed as fold increase in ATF-4 stimulation at 5 uM by dual luciferase reporter assay. As to conditions: filed as activator.

As usually defined, the IC50 is the concentration that gives 50% inhibition. A higher IC50 goes with weaker potency.

Consider `CC(C)(C)c1ccc(O)c(C2(c3cc(C(C)(C)C)ccc3OCCN3CCCCC3)C(=O)Nc3ccccc32)c1` (stereo not drawn), for which the IC50 amounted to 3350 nM in assay [1] and 700 nM in assay [2]. Further, the fold change (FC) in assay [3] turned out to be 4.15.
`CN1CCN(CCOc2ccc(C(C)(C)C)cc2C2(c3cc(C(C)(C)C)ccc3OCCN3CCN(C)CC3)C(=O)N(CCN3CCN(C)CC3)c3ccccc32)CC1` showed an IC50 in assay [2] of 600 nM. In assay [4] (filed as activator), the fold change (FC) was 6.73.
In the case of `CC(C)(C)c1ccc(O)c(C2(c3cc(C(C)(C)C)ccc3OCCN3CCOCC3)C(=O)N(CCN3CCOCC3)c3ccccc32)c1` (stereo not drawn), the concentration for half-maximal inhibition (IC50) in assay [1] was 2000 nM; in assay [2], 3600 nM. Further, the fold change (FC) in assay [5] was 31.9.
`CC(C)(C)c1ccc(O)c(C2(c3cc(C(C)(C)C)ccc3O)C(=O)Nc3ccccc32)c1`: the IC50 in assay [1] stood at 10200 nM; in assay [2] it was 2800 nM. For the same compound, the fold change (FC) in assay [6] was 3; in assay [4] (filed as activator) it was 5.2.
Consider `CCN(CC)CCOc1ccc(C(C)(C)C)cc1C1(c2cc(C(C)(C)C)ccc2OCCN(CC)CC)C(=O)Nc2ccccc21`, for which the IC50 was 1000 nM in assay [1] and at most 540 nM in [2]. Also, in assay [4], the fold change (FC) is below 0.54.
Regarding `CC(C)(C)c1ccc(O)c(C2(c3cc(C(C)(C)C)ccc3OCCN3CCCC3)C(=O)N(CCN3CCCC3)c3ccccc32)c1` (stereo not drawn), the IC50 in assay [1] stood at 7250 nM; in assay [2] it was 3600 nM. The fold change (FC) in assay [7] worked out at 9.09.
Turning to `CC(C)(C)c1ccc(OCCO)c(C2(c3cc(C(C)(C)C)ccc3OCCO)C(=O)Nc3ccccc32)c1`, the IC50 was found to be 2900 nM in assay [1] and 2700 nM in [2]. Also, the fold change (FC) in [3] stood at 3.42.
In the case of `CC(C)(C)c1ccc(O)c(C2(c3cc(C(C)(C)C)ccc3OCCN3CCNCC3)C(=O)Nc3ccccc32)c1` (stereo not drawn), the figures for the IC50 in assay [1] and in assay [2] were 1500 nM and 900 nM, respectively. Besides, the fold change (FC) in assay [3] turned out to be 15.1.
Taken in the same sequence, the figures for `CN1CCN(CCOc2ccc(C(C)(C)C)cc2C2(c3cc(C(C)(C)C)ccc3O)C(=O)Nc3ccccc32)CC1` (stereo not drawn) were 1400 nM, 750 nM and 24.6.
For `COCOc1ccc(C(C)(C)C)cc1C1(c2cc(C(C)(C)C)ccc2O)C(=O)Nc2ccccc21` (stereo not drawn), the IC50 in [1] was 2200 nM; in [2], 4200 nM. Besides, in assay [7], the fold change (FC) turned out to be 1.21.
With `CN(C)CCN1C(=O)C(c2cc(C(C)(C)C)ccc2O)(c2cc(C(C)(C)C)ccc2OCCN2CCCC2)c2ccccc21` (stereo not drawn), the IC50 in [1] and in assay [2] was at most 540 nM throughout. Also, the fold change (FC) in [4] (filed as activator) was 9.08.
Take `CC(C)(C)c1ccc(O)c(C2(c3cc(C(C)(C)C)ccc3OCCN3CCCC3)C(=O)Nc3ccccc32)c1` (stereo not drawn): the IC50 came to 10700 nM in assay [1] and 1000 nM in [2]. For the same compound, the fold change (FC) in assay [4] (filed as activator) was found to be 2.73.
With `CC(C)(C)c1ccc(O)c(C2(c3cc(C(C)(C)C)ccc3OCCN3CCOCC3)C(=O)Nc3ccccc32)c1` (stereo not drawn), the IC50 is 1650 nM in assay [1] and at most 540 nM in [2]. Besides, the fold change (FC) in [6] turned out to be 3; in assay [7], 5.69.
Consider `CC(C)(C)c1ccc(OCCN2CCCCC2)c(C2(c3cc(C(C)(C)C)ccc3OCCN3CCCCC3)C(=O)Nc3ccccc32)c1`, for which the values for the IC50 in assay [1] and in assay [2] were 11600 nM and 2140 nM, respectively. Also, in assay [5], the fold change (FC) is 5.91.
On to `CC(C)(C)c1ccc(O)c(C2(c3cc(C(C)(C)C)ccc3O)C(=O)N(CCN3CCOCC3)c3ccccc32)c1`, for which the IC50 in assay [1] worked out at 1600 nM; in assay [2], 2200 nM. Also, the results for the fold change (FC) in assay [6] and in assay [7] were 3 and 4.3, respectively.
Consider `CN(C)CCOc1ccc(C(C)(C)C)cc1C1(c2cc(C(C)(C)C)ccc2O)C(=O)N(CCN(C)C)c2ccccc21` (stereo not drawn), for which the IC50 in assay [1] turned out to be 900 nM; in assay [2] it was 300 nM. Also, the fold change (FC) in assay [4] (filed as activator) was 14.3.
`CN(C)CCN1C(=O)C(c2cc(C(C)(C)C)ccc2OCCN2CCCC2)(c2cc(C(C)(C)C)ccc2OCCN2CCCC2)c2ccccc21`: the IC50 in assay [1] came out at 800 nM; in [2], 540 nM. Moreover, in [8], the fold change (FC) was 11.8.
In the case of `COCCOc1ccc(C(C)(C)C)cc1C1(c2cc(C(C)(C)C)ccc2OCCOC)C(=O)Nc2ccccc21`, the results for the IC50 in [1] and in [2] were 700 nM and 4600 nM, respectively. Besides, the fold change (FC) in assay [5] came to 1.58.
For `CC(C)(C)c1ccc(O)c(C2(c3cc(C(C)(C)C)ccc3OCCO)C(=O)Nc3ccccc32)c1` (stereo not drawn), the IC50 in assay [1] worked out at 2900 nM; in assay [2] it was 8800 nM. The fold change (FC) in [7] turned out to be 10.8.
As to `CN(C)CCOc1ccc(C(C)(C)C)cc1C1(c2cc(C(C)(C)C)ccc2O)C(=O)Nc2ccccc21` (stereo not drawn), the values for the IC50 in assay [1] and in assay [2] were 1200 nM and 1900 nM, respectively. Further, the fold change (FC) in assay [3] amounted to 4.65.
For the compound `CC(=O)OCCOc1ccc(C(C)(C)C)cc1C1(c2cc(C(C)(C)C)ccc2OCCOC(C)=O)C(=O)Nc2ccccc21`, the results for the IC50 in assay [1] and in assay [2] were 2000 nM and 2500 nM, respectively. Also, in [5], the fold change (FC) turned out to be 2.07.
In the case of `CCN(CC)CCOc1ccc(C(C)(C)C)cc1C1(c2cc(C(C)(C)C)ccc2O)C(=O)Nc2ccccc21` (stereo not drawn), the figures for the IC50 in [1] and in [2] were 1500 nM and 600 nM, respectively. Moreover, the fold change (FC) in assay [3] came to 16.7.
Consider `CC(C)(C)c1ccc(O)c(C2(c3cc(C(C)(C)C)ccc3O)C(=O)N(CCBr)c3ccccc32)c1`, for which the IC50 is 1400 nM in [1] and 1500 nM in assay [2]. In addition, in [7], the fold change (FC) was determined as 9.6.
As for `CC(C)(C)c1ccc(OCCN2CCOCC2)c(C2(c3cc(C(C)(C)C)ccc3OCCN3CCOCC3)C(=O)N(CCN3CCOCC3)c3ccccc32)c1`, the IC50 worked out at 2700 nM in [1] and 2300 nM in [2]. Moreover, the values for the fold change (FC) in [6] and in [7] were 3 and 10.8, respectively.
As for `CN(C)CCN1C(=O)C(c2cc(C(C)(C)C)ccc2O)(c2cc(C(C)(C)C)ccc2O)c2ccccc21`, the half-inhibitory concentration (IC50) is above 20000 nM in [1] and 2700 nM in assay [2]. For the same compound, the fold change (FC) came out at 3 in [6] and 7.12 in assay [3].
Turning to `CC(C)(C)c1ccc(O)c(C2(c3cc(C(C)(C)C)ccc3OCCBr)C(=O)N(CCBr)c3ccccc32)c1` (stereo not drawn), the IC50 in [1] is 700 nM; in assay [2], 4600 nM. Moreover, the fold change (FC) in [5] came to 1.99.
For the compound `CC(C)(C)c1ccc(O)c(C2(c3cc(C(C)(C)C)ccc3OCCBr)C(=O)Nc3ccccc32)c1` (stereo not drawn), the IC50 in assay [1] amounted to 1000 nM; in assay [2], 2400 nM. In assay [7], the fold change (FC) turned out to be 12.9.
Taken in the same sequence, the figures for `CC(=O)OCCOc1ccc(C(C)(C)C)cc1C1(c2cc(C(C)(C)C)ccc2O)C(=O)Nc2ccccc21` (stereo not drawn) were 1600 nM, 2700 nM and 8.59.
With `CC(C)(C)c1ccc(OCCN2CCNCC2)c(C2(c3cc(C(C)(C)C)ccc3OCCN3CCNCC3)C(=O)Nc3ccccc32)c1`, the IC50 turned out to be 1500 nM in assay [1] and 800 nM in assay [2]. In addition, the fold change (FC) in [7] was found to be 11.4.
For the compound `CC(C)(C)c1ccc(OCCN2CCCC2)c(C2(c3cc(C(C)(C)C)ccc3OCCN3CCCC3)C(=O)N(CCN3CCCC3)c3ccccc32)c1`, the 50% inhibitory concentration (IC50) in assay [1] was 1470 nM; in assay [2], 550 nM. Further, the fold change (FC) in [8] stood at 12.1.
Turning to `CN(C)CCOc1ccc(C(C)(C)C)cc1C1(c2cc(C(C)(C)C)ccc2OCCN(C)C)C(=O)Nc2ccccc21`, the IC50 in assay [1] came out at 12500 nM; in [2], 10200 nM. For the same compound, in [7], the fold change (FC) turned out to be 1.34.
For `CCN(CC)CCOc1ccc(C(C)(C)C)cc1C1(c2cc(C(C)(C)C)ccc2OCCN(CC)CC)C(=O)N(CCN(CC)CC)c2ccccc21`, the figures for the IC50 in [1] and in assay [2] were 720 nM and at most 540 nM, respectively. The fold change (FC) in [8] worked out at 14.3.
As for `CC(C)(C)c1ccc(OCCN2CCOCC2)c(C2(c3cc(C(C)(C)C)ccc3OCCN3CCOCC3)C(=O)Nc3ccccc32)c1`, the results for the IC50 in [1] and in assay [2] were 2400 nM and 1680 nM, respectively. The fold change (FC) in assay [6] amounted to 3; in assay [3], 4.98.
For `CN(C)CCOc1ccc(C(C)(C)C)cc1C1(c2cc(C(C)(C)C)ccc2OCCN(C)C)C(=O)N(CCN(C)C)c2ccccc21`, the 50% inhibitory concentration (IC50) in assay [1] was 700 nM; in [2], 500 nM. The fold change (FC) in assay [8] was determined as 16.8.
Take `CC(C)(C)c1ccc(OCCN2CCCC2)c(C2(c3cc(C(C)(C)C)ccc3OCCN3CCCC3)C(=O)Nc3ccccc32)c1`: the IC50 in assay [1] was determined as 800 nM; in assay [2], 650 nM. In addition, the fold change (FC) in assay [9] stood at 13.9.
Turning to `CN1CCN(CCOc2ccc(C(C)(C)C)cc2C2(c3cc(C(C)(C)C)ccc3OCCN3CCN(C)CC3)C(=O)Nc3ccccc32)CC1`, the IC50 in assay [1] worked out at 740 nM; in assay [2], 200 nM. In addition, the fold change (FC) in assay [4] (filed as activator) amounted to 9.7.
